In patent publication US20180243421A1, “IMMUNOSTIMULATING AGENT” (AJINOMOTO CO., INC., priority 2015, published 2018):

Legend:
[1] = test system: anti-OVA-specific IgG1 subclass antibody; test: Adjuvant activity: anti-OVA-specific IgG1 subclass antibody in serum after secondary immunization (Examples 12, 19, 20, 21); format: in vivo, BALB/c mice; details: two weeks from secondary immunization
Protocol: 8-Week-old female BALB/c mice were divided into groups (N=6), and each group was primarily immunized by dorsal-subcutaneous administration of (1) ovalbumin (OVA) (5 μg) dissolved in saline as an antigen (OVA single administration group), (2) OVA (5 μg) added to 5% αCD-added saline, (3) OVA (5 μg) added to 10% HP-β-CD-added saline, (4) OVA (5 μg) and SZ62 (0.256 μmol) dissolved or dispersed in 5% αCD-added saline, and (5) OVA (5 μg) and SZ62 (0.256 μmol) dissolved in 10% HP-β-CD-added saline, each per mouse. One week later, the secondary immunization was carried out by dorsal-subcutaneous administration of solutions or dispersions similar to those of the above-mentioned (1) to (5) again. Two weeks from the secondary immunization, the blood was extracted under anesthesia, and the obtained serum samples were measured for anti-OVA-specific IgG1 subclass antibody.
(§1) Measurement Method of Concentration of anti-OVA-specific IgG1 Subclass Antibody and anti-OVA-specific IgG2a Subclass Antibody
(§2) To a 96 well plate was added 5 μg/ml OVA at 100 μl/well, and the mixture was incubated at 4° C. overnight. After incubation, the mixture was washed three times with 200 μl of PBS-T (PBS+0.05% (v/v) Tween 20) per well, and blocked with 100 μl of 5% FCS/PBS solution per well at room temperature for 1 to for 2 hr. Thereafter, the mixture was washed three times with PBS-T (200 μl/well), a diluted serum sample (100 μl/well) or the same amount of 5% FCS/PBS solution as a control was added, to and the mixture was incubated at 37° C. for 1 hr. To calculate concentration of the antibody, the standard of an anti-OVA-specific IgG1 subclass antibody diluted with 2% FCS/PBS solution was added at 100 ng/ml, 50 ng/ml, 25 ng/ml, 12.5 ng/ml, 6.25 ng/ml, 3.125 ng/ml, 1.56 ng/ml, 0.781 ng/ml, 0.391 ng/ml, 0.195 ng/ml, 0.098 ng/ml, 0 ng/ml, per 1 well. When an anti-OVA-specific IgG2a subclass antibody was measured, the standard of an anti-OVA-specific IgG2a subclass antibody was added at 50 ng/ml, 25 ng/ml, 12,5 ng/ml, 6.25 ng/ml, 3.125 ng/ml, 1.56 ng/ml, 0.781 ng/ml, 0.391 ng/ml, 0.195 ng/ml, 0.098 ng/ml, 0.049 ng/ml, 0 ng/ml, per 1 well. […] Thereafter, the mixture was washed five times with PBS-T (200 μl/well), a diluted anti-biotin-HRP antibody was added (100 μl/well), and the mixture was incubated at 37° C. for another 30 min. Thereafter, the mixture was washed five times with PBS-T (200 μl/well), TMB substrate solution was added (100 μl/well), and the mixture was incubated at room temperature for 10- for 15 min. Thereafter, a reaction quenching liquid (2N sulfuric acid solution) was added (50 μl/well) to discontinue a color developing reaction, and the absorbance (OD Value=450 nm) was measured by a microplate reader. A standard curve was drawn from the measured OD values, and the concentration was calculated.
8-Week-old female BALB/c mice were divided into groups (N=6), and each group was primarily immunized by dorsal-subcutaneous administration of (1) ovalbumin (OVA) (5 μg) dissolved in saline as an antigen (OVA single administration group), (2) OVA 10 μg and Addavax™ (mixed with saline at 1:1) dissolved in saline (Addavax™ administration group), (3) OVA (5 μg) and SZ86 (0.256 μmol) dissolved or dispersed in 5% αCD-added saline (SZ86 administration group), (4) OVA (5 μg) and SZ90 (0.256 μmol) dissolved or dispersed in 5% αCD-added saline (SZ90 administration group), (5) OVA (5 μg) and SZ92 (0.256 μmol) dissolved or dispersed in 5% αCD-added saline (SZ92 administration group), (6) OVA (5 μg) and SZ99 (0.256 μmol) dissolved or dispersed in 5% αCD-added saline (SZ99 administration group), (7) OVA (5 μg) and SZ106 (0.256 μmol) dissolved or dispersed in 5% αCD-added saline (SZ106 administration group), each per mouse. One week later, the secondary immunization was carried out by dorsal-subcutaneous administration of solutions or dispersions similar to those of the above-mentioned (1)-(7) again.

[2] = test system: anti-OVA-specific IgG1 subclass antibody; test: Adjuvant activity after primary immunization: anti-OVA-specific IgG1 subclass antibody in serum (Examples 13-18); format: in vivo, BALB/c mice; details: OVA 5 μg + 0.256 μmol in 5% αCD saline s.c., serum after 12 days
Protocol: 8-Week-old female BALB/c mice were divided into groups (N=6), and each group was primarily immunized by dorsal-subcutaneous administration of (1) ovalbumin (OVA) (5 μg) dissolved in saline as an antigen (OVA single administration group), (2) OVA (5 μg) and SZ83 (0.256 μmol) dissolved or dispersed in 5% αCD-added saline (SZ83 administration group), (3) OVA (5 μg) and SZ84 (0.256 μmol) dissolved or dispersed in 5% αCD-added saline (SZ84 administration group), (4) OVA (5 μg) and SZ86 (0.256 μmol) dissolved or dispersed in 5% αCD-added saline (SZ86 administration group), (5) OVA (5 μg) and SZ89 (0.256 μmol) dissolved or dispersed in 5% αCD-added saline (SZ89 administration group), (6) OVA (5 μg) and SZ90 (0.256 μmol) dissolved or dispersed in 5% αCD-added saline (SZ90 administration group), each per mouse. After 12 days, blood samples were collected under anesthesia, and the obtained serum samples were subjected to the measurement of an anti-OVA-specific IgG1 subclass antibody.
as §1, §2
8-Week-old female BALB/c mice were divided into groups (N=6), and each group was primarily immunized by dorsal-subcutaneous administration of (1) ovalbumin (OVA) (5 μg) dissolved in saline as an antigen (OVA single administration group), (2) OVA (5 μg) and SZ92 (0.256 μmol) dissolved or dispersed in 5% αCD-added saline (SZ92 administration group), (3) OVA (5 μg) and SZ94 (0.256 μmol) dissolved or dispersed in 5% αCD-added saline (SZ94 administration group), (4) OVA (5 μg) and SZ95 (0.256 μmol) dissolved or dispersed in 5% αCD-added saline (SZ95 administration group), (5) OVA (5 μg) and SZ96 (0.256 μmol) dissolved or dispersed in 5% αCD-added saline (SZ96 administration group), each per mouse. After 12 days, blood samples were collected under anesthesia, and the obtained serum samples were subjected to the measurement of anti-OVA-specific IgG1 subclass antibody.

[3] = Example 19, OVA 5 μg + 0.256 μmol in 5% αCD saline s.c. (Addavax 1:1 with OVA 10 μg)
[4] = Example 20, OVA 5 μg + 0.256 μmol in 5% αCD saline s.c. (Addavax 1:1 with OVA 10 μg)

SMILES | anti-OVA-specific IgG1 subclass antibody production as compared to the OVA single administration group [1, 3] | anti-OVA-specific IgG1 subclass antibody production as compared to the OVA single administration group [1, 4] | anti-OVA-specific IgG1 subclass antibody production after primary immunization as compared to the OVA single administration group ([2]; Example 15) | also measured
CCCCCCCCCCCCCCCC(=O)NC(=N)NCCCCN [SZ62, N-hexadecanoylagmatine] |  |  |  | anti-OVA-specific IgG1 subclass antibody production as compared to the OVA single administration group ([1]; Example 12, SZ62 0.256 μmol dispersed in 5% αCD-added saline, OVA 5 μg s.c.): significantly increased; anti-OVA-specific IgG1 subclass antibody production as compared to the OVA single administration group ([1]; Example 12, SZ62 0.256 μmol dissolved in 10% HP-β-CD-added saline, OVA 5 μg s.c.): significantly increased
CCCCCCCCCCCCCCCCCCC(CCCCCCCCCCCCCCCCCC)C(=O)N[C@@H](CC(C)C)C(=O)OC [SZ86, N-(2-octadecyleicosanoyl)-L-leucine methyl ester] | tended to increase | tended to increase |  | anti-OVA-specific IgG1 subclass antibody production after primary immunization ([2]; Example 13): show a tendency to increase
CCCCCCCCCCCCCCCC(=O)N[C@@H](CC(C)C)C(=O)N(CC)CC [SZ92, N^2-hexadecanoyl-N^1,N^1-diethyl-L-leucinamide] | significantly increased | significantly increased |  | anti-OVA-specific IgG1 subclass antibody production after primary immunization as compared to the OVA single administration group ([2]; Example 14): significantly increased
CCCCCCCCCCCCCCCC(=O)N[C@@H](CC(C)C)C(=O)OCCCCCC [SZ97, N-hexadecanoyl-L-leucine hexyl ester] |  | significantly increased | show a tendency to increase | 
CCCCCCCCCCCCCCCC(=O)N[C@@H](CCCNC(=N)N)C(=O)OCCCCCC.Cl [SZ99, N^2-hexadecanoyl-L-arginine hexyl ester hydrochloride salt] | tended to increase |  | significantly increased | 
CCCCCCCCCCCCCCCCCCCCCC(=O)N[C@@H](CCC(=O)O)C(=O)N(CC)CC [SZ106, N^2-docosanoyl-N^1,N^1-diethyl-L-glutamic acid 1-amide] | tended to increase | tended to increase | show a tendency to increase | 
CCCCCCCCCCCCCCCCCCCCCC(=O)NC(=N)NCCCCN.Cl [SZ108, N-docosanoylagmatine hydrochloride salt] |  | tended to increase |  | anti-OVA-specific IgG1 subclass antibody production after primary immunization as compared to the OVA single administration group ([2]; Example 16): significantly increased
